The subject of assay [1] is genotype 1b (Con1) stable HCV replicon in Huh-7-derived cells. The assay can be described thus: Stable subgenomic HCV replicon EC50, genotype 1b (Renilla luciferase). The class given is cell-based, hepatitis C virus. The settings on record: stable replicon genotype 1b, 72 h, read-out: EC50 1B RLUC. A digest of the protocol: (§1)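 Compounds, three-fold diluted, were applied to Huh-7-derived cells harbouring luciferase replicons (genotype 1a H77, 1b Con1, 2a JFH-1, 4a ED43, with strain-specific adaptive mutations). Seventy-two hours later, intracellular replication was gauged by Renilla luciferase activity and EC50 derived by regression.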
(Replicon systems follow genome replication, usually without infectious particles.)

The subject of assay [2] is genotype 1a (H77) wild type transient HCV replicon in Huh-7-derived cells. Description: Transient-transfected HCV replicon EC50, genotype 1a wild type. The settings on record: transient-transfected replicon genotype 1a wild type, 72 h, read-out: EC50 1A WT. The class given is cell-based, hepatitis C virus.
Assay [3] deals with genotype 1b (Con1) wild type transient HCV replicon in Huh-7-derived cells. The assay can be described thus: Transient-transfected HCV replicon EC50, genotype 1b wild type. To be noted: transient-transfected replicon genotype 1b wild type, 72 h, read-out: EC50 1B WT. It counts as cell-based, hepatitis C virus.
In assay [4] the target is HCV NS3 protease domain genotype 3a (Hepatitis C virus genotype 3a, UniProt Q81258). Description: Ki determination, NS3 protease genotype 3a (fluorogenic depsipeptide substrate). It counts as biochemical. The settings on record: 200 pM enzyme, NS4A peptide. The source says:
Purified NS3 protease domain (amino acids 1-181) of the genotype 1b and 3a virus were generated as above. The internally quenched fluorogenic depsipeptide substrate Ac-DED(Edans)-EEAbuΨ[COO]ASK(Dabcyl)-NH2 and a synthetic peptide containing the hydrophobic core residues of the NS4A protein cofactor ([…]; NS4A peptide) were obtained from Anaspec, Inc. (San Jose, Calif.). Other chemicals and biochemicals were of reagent grade or better and were purchased from standard suppliers.
Reactions were run at room temperature in buffer consisting of 50 mM HEPES, 40% glycerol, 0.05% Triton X-100, 10 mM DTT, and 10% DMSO. The final assay solutions contained 50 pM NS3 genotype 1 b protease or 200 pM genotype 3a protease, 20 μM NS4A peptide, and 4 μM substrate (genotype 1b) or 2 μM substrate (genotype 3a). Inhibitor concentrations varied from 100 nM to 5 pM in 3-fold dilutions, and no-inhibitor controls were included.
Compound dilutions were made in DMSO at 20× final concentration. Reaction mixtures were prepared in 96-well assay plates. A solution of enzyme and NS4A peptide in assay buffer (25 μL volume with both reagents at 4× final concentration) was mixed with 45 μL assay buffer and 5 μL of either inhibitor or DMSO, and pre-incubated at room temperature for 1 hour. The reaction was started by addition of 25 μL substrate solution at 4× final concentration. Plates were mixed vigorously for 5-10 seconds and reactions were allowed to proceed for 90 minutes, fluorescence was measured every 30 s between 90 and 120 minutes reaction time using a Tecan InfiniTe M1000 or PerkinElmer Envision multimode plate reader with an excitation wavelength of 340 nm and an emission wavelength of 490 nm.
Rates were calculated from the progress curves at steady state, in the time frame of 90-120 minutes after addition of substrate. To determine the Ki, rates were plotted as a function of inhibitor concentration, and the data were fit with equation 1 (Morrison, J. F., Biochimica et Biophysica Acta 1969, 185, 269-286) to calculate Ki^app using GraphPad Prism 5. Active fraction of enzyme was determined by active site titration with known potent inhibitors. Ki was calculated from Ki^app/(1+[[S]/Km]).

For assay [5], the system named is genotype 1a NS3/4a protease inhibitor resistant variant R155K transient HCV replicon in Huh-7-derived cells. Description: Transient-transfected HCV replicon EC50, genotype 1a R155K. To be noted: 72 h. The class given is cell-based, hepatitis C virus.
Assay [6] deals with genotype 1a (H77) stable HCV replicon in Huh-7-derived cells. The assay can be described thus: Stable subgenomic HCV replicon EC50, genotype 1a (Renilla luciferase). The class given is cell-based, hepatitis C virus. To be noted: stable replicon genotype 1a, 72 h, read-out: EC50 1A RLUC. A digest of the protocol: as §1
The test system of assay [7] is genotype 3a (S52) stable HCV replicon in Huh-7-derived cells. Description: Stable subgenomic HCV replicon EC50, genotype 3a (Renilla luciferase). It counts as cell-based, hepatitis C virus. The settings on record: 72 h, read-out: EC50 3A RLUC.
The test system of assay [8] is genotype 4a (ED43) stable HCV replicon in Huh-7-derived cells. Description: Stable subgenomic HCV replicon EC50, genotype 4a (Renilla luciferase). It counts as cell-based, hepatitis C virus. The settings on record: 72 h, read-out: EC50 4A RLUC. The essentials: as §1
The subject of assay [9] is genotype 2a (JFH-1) stable HCV replicon in Huh-7-derived cells. Description: Stable subgenomic HCV replicon EC50, genotype 2a (Renilla luciferase). The class given is cell-based, hepatitis C virus. The settings on record: stable replicon genotype 2a, 72 h, read-out: EC50 2A RLUC. A digest of the protocol: as §1
For assay [10], the system named is genotype 1b NS3/4a protease inhibitor resistant variant D168A transient HCV replicon in Huh-7-derived cells. Description: Transient-transfected HCV replicon EC50, genotype 1b D168A. It counts as cell-based, hepatitis C virus. The settings on record: 72 h.
[11] abbreviates: transient-transfected replicon genotype 1a R155K resistant variant, read-out: EC50 1A R155K.
Setting [12] is: stable replicon genotype 3a, Renilla luciferase.
The mark [13] stands for this setting: stable replicon genotype 4a, Renilla luciferase.
Where [14] appears, read: transient-transfected replicon genotype 1b D168A resistant variant, read-out: EC50 1B D168A.

Where two headings read alike, the source gives them in different places.

Chain of HCV NS3 protease domain genotype 3a (Q81258 whole entry, looked up, the tested form may be a part): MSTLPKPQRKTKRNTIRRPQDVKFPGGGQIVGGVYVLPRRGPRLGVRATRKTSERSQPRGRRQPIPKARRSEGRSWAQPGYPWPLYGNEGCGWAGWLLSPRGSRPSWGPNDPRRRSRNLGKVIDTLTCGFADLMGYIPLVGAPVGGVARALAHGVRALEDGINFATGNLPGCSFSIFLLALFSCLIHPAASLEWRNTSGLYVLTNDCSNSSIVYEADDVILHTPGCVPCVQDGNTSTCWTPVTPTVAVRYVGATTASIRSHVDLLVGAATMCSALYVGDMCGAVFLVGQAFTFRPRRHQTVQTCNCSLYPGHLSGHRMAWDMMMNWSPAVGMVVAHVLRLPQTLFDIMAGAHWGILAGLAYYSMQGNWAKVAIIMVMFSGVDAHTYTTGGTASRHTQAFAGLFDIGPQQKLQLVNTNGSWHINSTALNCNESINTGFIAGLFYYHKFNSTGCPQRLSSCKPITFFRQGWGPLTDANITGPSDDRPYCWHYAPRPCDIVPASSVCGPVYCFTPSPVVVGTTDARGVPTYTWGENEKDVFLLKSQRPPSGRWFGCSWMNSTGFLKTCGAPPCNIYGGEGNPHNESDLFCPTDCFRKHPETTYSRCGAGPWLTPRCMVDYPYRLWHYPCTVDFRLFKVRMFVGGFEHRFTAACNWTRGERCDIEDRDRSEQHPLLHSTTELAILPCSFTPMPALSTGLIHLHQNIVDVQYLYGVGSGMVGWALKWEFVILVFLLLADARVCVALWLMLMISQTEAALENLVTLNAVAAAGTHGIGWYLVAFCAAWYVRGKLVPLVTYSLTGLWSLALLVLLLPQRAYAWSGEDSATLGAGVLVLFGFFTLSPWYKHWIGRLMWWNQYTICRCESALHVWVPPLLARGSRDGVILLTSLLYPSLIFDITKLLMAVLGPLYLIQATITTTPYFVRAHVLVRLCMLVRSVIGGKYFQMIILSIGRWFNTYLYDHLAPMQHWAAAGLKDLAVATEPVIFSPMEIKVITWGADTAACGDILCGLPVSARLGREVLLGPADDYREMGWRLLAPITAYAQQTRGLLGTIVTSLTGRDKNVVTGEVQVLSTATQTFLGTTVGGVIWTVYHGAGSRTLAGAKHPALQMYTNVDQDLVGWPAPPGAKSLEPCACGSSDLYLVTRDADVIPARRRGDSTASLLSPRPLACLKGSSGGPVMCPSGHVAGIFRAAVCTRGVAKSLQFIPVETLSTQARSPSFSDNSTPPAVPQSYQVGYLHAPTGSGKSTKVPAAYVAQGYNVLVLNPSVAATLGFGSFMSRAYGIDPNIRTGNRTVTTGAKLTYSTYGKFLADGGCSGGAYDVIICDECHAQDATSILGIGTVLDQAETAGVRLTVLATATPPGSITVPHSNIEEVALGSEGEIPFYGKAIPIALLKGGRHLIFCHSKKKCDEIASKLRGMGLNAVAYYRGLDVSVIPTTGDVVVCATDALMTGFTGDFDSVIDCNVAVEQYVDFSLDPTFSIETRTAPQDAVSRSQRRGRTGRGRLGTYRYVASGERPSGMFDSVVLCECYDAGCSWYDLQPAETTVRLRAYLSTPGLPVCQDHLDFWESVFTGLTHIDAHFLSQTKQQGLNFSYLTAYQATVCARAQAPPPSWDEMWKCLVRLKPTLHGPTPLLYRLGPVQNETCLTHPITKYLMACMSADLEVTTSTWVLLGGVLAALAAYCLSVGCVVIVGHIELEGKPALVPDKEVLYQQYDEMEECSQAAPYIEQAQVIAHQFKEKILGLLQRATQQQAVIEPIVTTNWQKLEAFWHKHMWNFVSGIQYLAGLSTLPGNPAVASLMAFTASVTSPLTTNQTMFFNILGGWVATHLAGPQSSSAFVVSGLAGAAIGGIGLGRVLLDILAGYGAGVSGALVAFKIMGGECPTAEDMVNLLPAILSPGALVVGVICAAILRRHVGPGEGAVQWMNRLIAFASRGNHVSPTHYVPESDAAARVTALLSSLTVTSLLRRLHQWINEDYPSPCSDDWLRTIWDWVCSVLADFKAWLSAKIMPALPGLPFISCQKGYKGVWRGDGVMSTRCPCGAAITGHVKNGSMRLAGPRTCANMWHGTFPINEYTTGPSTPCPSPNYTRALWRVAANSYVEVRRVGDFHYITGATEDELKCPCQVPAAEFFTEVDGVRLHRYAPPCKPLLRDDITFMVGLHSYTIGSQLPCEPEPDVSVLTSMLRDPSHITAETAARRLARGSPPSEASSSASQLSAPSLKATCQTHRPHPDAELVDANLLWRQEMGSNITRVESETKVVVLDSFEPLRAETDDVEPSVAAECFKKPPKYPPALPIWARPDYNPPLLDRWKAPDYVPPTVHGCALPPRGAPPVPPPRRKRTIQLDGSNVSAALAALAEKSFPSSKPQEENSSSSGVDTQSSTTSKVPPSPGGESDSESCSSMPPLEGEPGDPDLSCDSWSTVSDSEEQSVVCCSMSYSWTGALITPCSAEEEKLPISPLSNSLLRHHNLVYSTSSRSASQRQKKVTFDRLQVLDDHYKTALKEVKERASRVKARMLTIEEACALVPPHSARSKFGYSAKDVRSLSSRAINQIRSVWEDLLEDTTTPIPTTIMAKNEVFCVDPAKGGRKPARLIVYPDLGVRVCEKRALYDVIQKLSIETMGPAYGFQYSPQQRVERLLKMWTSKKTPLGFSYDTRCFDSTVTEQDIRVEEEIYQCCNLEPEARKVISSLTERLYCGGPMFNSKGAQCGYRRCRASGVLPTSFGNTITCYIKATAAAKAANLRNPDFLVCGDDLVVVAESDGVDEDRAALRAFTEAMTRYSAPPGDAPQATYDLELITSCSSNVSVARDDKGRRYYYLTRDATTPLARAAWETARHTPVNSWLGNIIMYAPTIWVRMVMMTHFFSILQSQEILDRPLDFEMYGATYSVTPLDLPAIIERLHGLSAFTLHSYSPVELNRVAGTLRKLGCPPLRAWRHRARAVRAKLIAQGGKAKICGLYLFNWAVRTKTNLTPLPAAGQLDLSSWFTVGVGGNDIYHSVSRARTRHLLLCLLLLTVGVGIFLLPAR

By EC50 is commonly meant the concentration at which the effect is half-maximal. The Ki is the equilibrium dissociation constant of an inhibitor or competing ligand from its target. Turning to `CC[C@@H]1[C@@H]2CN(C(=O)[C@H](C(C)(C)C)NC(=O)O[C@]3(C(F)(F)F)CCC[C@H]3CCCCCc3nc4ccc(OC)cc4nc3O2)[C@@H]1C(=O)N[C@]1(C(=O)NS(=O)(=O)C2CC2)C[C@H]1C(F)F` [Example 11, (7S,10S,11 S,12R)-7-tert-butyl-N-[(1R,2R)-1-[(cyclopropylsulfonyl)carbamoyl]-2-(difluoromethyl)cyclopropyl]-1-ethyl-16-methoxy-5,8-dioxo-3aR-(trifluoromethyl)-1,2,3,3a,5,6,7,8,11,12,20,21,22,23,24,24a-hexadecahydro-1 OH-9,12-methanocyclopenta[18,19][1,10,3,6]dioxadiazacyclononadecino[11,12-b]quinoxaline-10-carboxamide], the concentration for a half-maximal effect (EC50) stood at 17 nM in assay [1]; 20 nM in assay [2]; 9.4 nM in assay [3]; 159 nM in [5] (setting [11]); 28 nM in assay [6]; 1160 nM in assay [7] (setting [12]). The concentration giving a half-maximal response (EC50) was 19 nM in assay [8] (setting [13]), 34 nM in [9] and 605 nM in [10] (setting [14]). Further, the affinity in assay [4] corresponds to a Ki of 0.88 nM.
Take `COc1ccc2nc3c(nc2c1)O[C@H]1CN(C(=O)[C@H](C(C)(C)C)NC(=O)O[C@@H]2C[C@H]2CCCCC3)[C@H](C(=O)N[C@]2(C(=O)NS(=O)(=O)C3(C)CC3)C[C@H]2C(F)F)[C@@H]1Cc1ccccc1` [Example 32]: the concentration giving a half-maximal response (EC50) in [1] (Hepatitis C virus) stood at 30 nM; in assay [2] (Hepatitis C virus, GETYPE1A) it was 44 nM; in assay [3] (Hepatitis C virus, GETYPE1B), 14 nM; in [5] (Hepatitis C virus, GETYPE1A, read-out: EC50 1A R155K, transient-transfected replicon genotype 1a R155K resistant variant, 72 h), 547 nM; in [6] (Hepatitis C virus), 59 nM; in [7] (Hepatitis C virus), 2310 nM. Also, the half-maximal effective concentration (EC50) is 30 nM in assay [8] (Hepatitis C virus); 35 nM in [9] (Hepatitis C virus); 653 nM in [10] (Hepatitis C virus, GETYPE1B, read-out: EC50 1B D168A, transient-transfected replicon genotype 1b D168A resistant variant, 72 h). Also, in assay [4], the affinity corresponds to a Ki of 0.87 nM.
`CC[C@]12C[C@@H]1CCCCCc1nc3ccc(OC)cc3nc1O[C@H]1CN(C(=O)[C@H](C(C)(C)C)NC(=O)O2)[C@H](C(=O)N[C@]2(C(=O)NS(=O)(=O)C3(C)CC3)C[C@H]2C(F)F)[C@@H]1C` [Example 42, (1aS,5S,8S,9S,10R,22aS)-5-tert-butyl-N-[(1R,2R)-2-(difluoromethyl)-1-{[(1-methylcyclopropyl)sulfonyl]carbamoyl}cyclopropyl]-1a-ethyl-14-methoxy-9-methyl-3,6-dioxo-1,1a,3,4,5,6,9,10,18,19,20,21,22,22a-tetradecahydro-8H-7,10-methanocyclopropa[18,19][1,10,3,6]dioxadiazacyclononadecino[11,12-b]quinoxaline-8-carboxamide]: the half-maximal effective concentration (EC50) in [1] (Hepatitis C virus) amounted to 16 nM; in assay [2] (Hepatitis C virus) it was 17 nM; in assay [3] (Hepatitis C virus), 10 nM; in assay [5] (Hepatitis C virus, read-out: EC50 1A R155K, transient-transfected replicon genotype 1a R155K resistant variant, 72 h), 35 nM; in assay [6] (Hepatitis C virus), 20 nM; in [7] (Hepatitis C virus) it was 343 nM. For the same compound, the concentration giving a half-maximal response (EC50) was 14 nM in assay [8] (Hepatitis C virus); 17 nM in [9] (Hepatitis C virus); 109 nM in assay [10] (Hepatitis C virus, read-out: EC50 1B D168A, transient-transfected replicon genotype 1b D168A resistant variant, 72 h). The compound also displayed a Ki in assay [4] of 0.75 nM.
For the compound `CC[C@@H]1[C@@H]2CN(C(=O)[C@H](C(C)(C)C)NC(=O)O[C@]3(C(F)(F)F)CCCC3CCCCCc3nc4ccc(OC)cc4nc3O2)[C@@H]1C(=O)N[C@]1(C(=O)NS(=O)(=O)C2(C)CC2)C[C@H]1C(F)F` (stereo partly drawn) [Example 9, (7S,10S,11S,12R)-7-tert-butyl-N-[(1R,2R)-2-(difluoromethyl)-1-{[(1-methylcyclopropyl)sulfonyl]carbamoyl}cyclopropyl]-11-ethyl-16-methoxy-5,8-dioxo-3aR-(trifluoromethyl)-1,2,3,3a,5,6,7,8,11,12,20,21,22,23,24,24a-hexadecahydro-10H-9,12-methanocyclopenta[18,19][1,10,3,6]dioxadiazacyclononadecino[11,12-b]quinoxaline-10-carboxamide], the EC50 in assay [1] stood at 7.9 nM; in assay [2] it was 12 nM; in assay [3] it was 2.5 nM; in [5] (setting [11]), 208 nM; in [6] it was 17 nM; in [7] (setting [12]) it was 1270 nM. The concentration giving a half-maximal response (EC50) in assay [8] (setting [13]) came out at 11 nM; in assay [9], 23 nM; in assay [10] (setting [14]), 360 nM. The same compound yielded a Ki in assay [4] of 0.59 nM.
Consider `CC[C@@H]1[C@@H]2CN(C(=O)[C@H](C(C)(C)C)NC(=O)O[C@@]3(C(F)(F)F)CCC[C@H]3CCCCCc3nc4ccc(OC)cc4nc3O2)[C@@H]1C(=O)N[C@]1(C(=O)NS(=O)(=O)C2CC2)C[C@H]1C(F)F` [Example 12, (7S,10S,11S,12R)-7-tert-butyl-N-[(1R,2R)-1-[(cyclopropylsulfonyl)carbamoyl]-2-(difluoromethyl)cyclopropyl]-11-ethyl-16-methoxy-5,8-dioxo-3aS-(trifluoromethyl)-1,2,3,3a,5,6,7,8,11,12,20,21,22,23,24,24a-hexadecahydro-10H-9,12-methanocyclopenta[18,19][1,10,3,6]dioxadiazacyclononadecino[11,12-b]quinoxaline-10-carboxamide], for which the EC50 in assay [1] was 18 nM; in assay [2], 14 nM; in assay [3] it was 5.7 nM; in assay [5] (setting [11]) it was 283 nM; in assay [6], 34 nM; in assay [7] (setting [12]), 2010 nM. Also, the EC50 in assay [8] (setting [13]) was 21 nM; in assay [9] it was 25 nM; in [10] (setting [14]) it was 640 nM. In [4], the inhibition constant (Ki) came to 1.2 nM.

Values taken from patent US10335409B2 (priority 2012, dated 2019).
